# Reference: patent US20100255020A1, “METHOD FOR INDUCING CYTOTOXIC T-CELLS, CYTOTOXIC T-CELL INDUCERS, AND PHARMACEUTICAL COMPOSITIONS AND VACCINES EMPLOYING THEM” (NEC CORPORATION, priority 2007, published 2010)
# Where no end group is shown, it is not given here.
# Tested on: W10-specific CD8 positive T cells
# Assay: HLA-A24 tetramer flow cytometry of peptide-specific T cells
# Type: cell-based, human
# Conditions: patient KB07-006, PBMCs incubated with W10 peptide
# Procedure: HLA-A24 tetramer was prepared by modifying a method by Altman et al. (Altman, J D, Moss, P A., Goulder, P J, Barouch, D H, McHeyzer-Williams, M G, Bell, J I, McMichael, A J, Davis, M M. Phenotypic analysis of antigen-specific T lymphocytes. Science […] 274, 94-96.)
# HLA-A24 tetramer was prepared by expressing an HLA-A*2402 molecule in E. coli and W10 peptide was bound thereto. Furthermore, the C-terminus of the complex was modified by a site-specific biotinyltion. The product was then complexed with streptavidin (SA), giving rise to a molecular assembly consisting of 4 molecules of W10-bound HLA-A*2402 molecules and 1 SA.
# Here in this assay, T cells specific for a HLA-A24-W10 complex was fluorescently labeled with […] (phycoerythrin) conjugated SA and antigen specific T cells were identified by flow cytometry.
# cDNAs of HLA-A*2402, which is an H-chain constituting an HLA-A*2402 molecule, and human β2m 02-microglobulin) which is a light chain, were inserted into a pET-21d+vector (Novagen, Merck) under T7 promoter, respectively. The resultant vector was introdyced into E. coli BL21 (DE3) pLysS, and expression of the gene was induced using IPTG. […]
# This HLA-A*2402-W10 monomer was associated with PE-labeled SA at a molecular ratio of 4:1, thus preparing HLA tetramer. […] T cells were incubated with HLA-A*2402-W10 or HLA-A*2402-HER2-63 on ice for 1 hour and then analyzed by flow cytometry.
sequence,measurement,value
ALLPAVPSL [W10],W10-specific CD8 positive T cells (HLA-A24-W10 tetramer staining),increased
